Measured values reported in patent US8993603B2, “Pharmaceutical composition and method using antifungal agent in combination” (Toyama Chemical Co., Ltd., priority 2005, dated 2015).

Experiments:
[1] = test system: Aspergillus fumigatus TIMM0063; assay: Mouse systemic infection model using Aspergillus fumigatus; type: in vivo; details: ICR mice, 15 days after infection, test compound 0.1 mg/kg s.c., once a day, 7 times
Method: In vivo activity was evaluated employing a mouse systemic infection model using Aspergillus fumigatus.
As for the inoculum, mice (four-week old (at infection) male ICR mice, 10 mice per group) were intraperitoneally administered with cyclophosphamide 4 days prior to infection (200 mg/kg) and the day after infection (100 mg/kg). A conidium suspension of Aspergillus fumigatus TIMM0063 was diluted with sterile physiological saline solution containing 0.05% Tween 80 (manufactured by Difco Laboratories) to prepare an inoculum. The mice were intravenously inoculated in their tails with 0.2 mL of the inoculum to induce infection (approximately 4×10^4 CFU/mouse).
(§1) The test compound was dissolved in a small amount of 0.1 mol/L hydrochloric acid, and the resultant solution was diluted with sterile physiological saline solution.
Voriconazole was dissolved in 50 mg/mL aqueous sulfobutyl ether β-cyclodextrin sodium (SIDIX) solution.
Flucytosine was suspended in 0.5% methyl cellulose solution.
(§2) The test compound (0.1 mg/kg) and voriconazole (5 mg/kg) were subcutaneously administered and flucytosine (50 mg/kg) was orally administered 2 hours after infection and then once a day for 6 days for a total of 7 times. The test was carried out for the case where each of the agents was administered singly and in combination by administering each of the agents immediately after the test compound had been administered. Efficacy in the susceptibility test was evaluated by the survival rate 15 days after infection.

[2] = test system: Cryptococcus neoformans ATCC90112; assay: Mouse systemic infection model using Cryptococcus neoformans; type: in vivo; details: ICR mice, 22 days after infection, test compound 0.125 mg/kg s.c., once a day, 7 times
Method: In vivo activity was evaluated employing a mouse systemic infection model using Cryptococcus neoformans.
Mice (four-week old (at infection) male ICR mice, 10 mice per group) were intraperitoneally administered with cyclophosphamide 4 days prior to infection (200 mg/kg) and the day after infection (100 mg/kg). An inoculum was prepared by suspending in sterile physiological saline solution Cryptococcus neoformans ATCC90112 on a SDA flat plate that had been cultured for one night at 35° C., counting the number of cells using a biological microscope, and then diluting with sterile physiological saline solution. The mice were intravenously inoculated in their tails with 0.2 mL of the inoculum to induce infection (approximately 8×10^4 CFU/mouse).
as §1
Fluconazole was prepared using sterile physiological saline solution.
Amphotericin B was dissolved in a 5% aqueous glucose solution.
as §2, with “(0.125 mg/kg), fluconazole (5” for “(0.1”, “amphotericin B (0.25” for “voriconazole (5”, “subcutaneously” for “subcutaneously administered and flucytosine (50 mg/kg) was orally”, “days” for “days for”, “where the” for “where”, “22” for “15”

[3] = Table 5, flucytosine 50 mg/kg orally
[4] = Table 7, amphotericin B 0.25 mg/kg s.c.
[5] = Table 4, voriconazole 5 mg/kg s.c.
[6] = Table 6, fluconazole 5 mg/kg s.c.

Compound	Survival rate (%) [1, 3]	Survival rate (%) [2, 4]	Survival rate (%) [1, 5]	Survival rate (%) [2, 6]
Nc1[nH]c(=O)ncc1F [5-FC, flucytosine]	10%	–	–	–
C[C@@H]1[C@H](O)[C@@H](C)/C=C/C=C/C=C/C=C/C=C/C=C/C=C/[C@H](O[C@@H]2O[C@H](C)[C@@H](O)[C@H](N)[C@@H]2O)C[C@@H]2O[C@](O)(C[C@@H](O)C[C@@H](O)[C@H](O)CC[C@@H](O)C[C@@H](O)CC(=O)O[C@H]1C)C[C@H](O)[C@H]2C(=O)O [AMPH-B, amphotericin B]	–	20%	–	–
C[C@@H](c1ncncc1F)[C@](O)(Cn1cncn1)c1ccc(F)cc1F [VLCZ, voriconazole]	–	–	10%	–
N=C(N)c1ccc(OCCCC2CCN(CCCOc3ccc(C(=N)N)cc3)CC2)cc1 [Test Compound]	10%	0%	10%	20%
OC(Cn1cncn1)(Cn1cncn1)c1ccc(F)cc1F [FLCZ, fluconazole]	–	–	–	10%
